Assay [1] concerns primary chicken embryonic connective tissue fibroblasts. The experiment in a line: Fibroblast growth assay. The format is cell-based. As to conditions: for effect on fibroblast growth / cell numbers: 3 days treatment, 2% donor calf serum. As to the method:
Primary chicken embryonic connective tissue fibroblasts (CEFs) were cultured as previously described in Martins-Green and Feugate (1998). Briefly, these fibroblasts were isolated from 10-day-old chicken embryo body walls, plated at 6×10^6 cells/100 mm plate and cultured for 4 days in 199 medium with 5% donor calf serum, 1% chick serum and 0.3% tryptose phosphate broth. These cultures were passaged once (secondary cultures); the cells were plated at 0.4×10^6 cells/35 mm plate in 199/tryptose phosphate broth and 2% donor calf serum.
Secondary fibroblasts were plated at 0.4×10^6 cells/35 mm plate and cCAF was added to experimental plates. For each experiment, plating efficiency was determined by trypsinizing plates four hours after plating. Cells were counted with a Coulter particle counter to confirm even plating of cells. The media was replaced approximately every 16 hr with 1 ml of […] 199 medium containing 0.3% tryptose phosphate broth and 2% donor calf serum, and 100-1000 ng cCAF [9-90 nM] or C- or N-peptide [64-640 nM] was added to the experimental plates, whereas, control plates contained media only. On day 3, plates were trypsinized to remove all cells and cells were counted using a Coulter counter. To test for specificity, anti-cCAF rabbit serum was pre-incubated with cCAF (3 μl serum/750 ng cCAF [68 nM] or N-peptide [480 nM]) for 1 hr at room temperature before being added to cells.

Assay [2] concerns chicken chorioallantoic membrane (CAM). As to conditions: in vivo; cited from earlier work.
Assay [3] deals with chicken CXC receptor 1 (CXCR1). The experiment in a line: Chicken cCXCR1-mediated calcium release. Type of assay: cell-based. As to conditions: NIH #373 cells overexpressing chicken CXCR1. The protocol:
NIH #373 cells overexpressing the chicken CXC receptor 1 (CXCR1) were exposed to the full-length cCAF molecule, the 15-amino N-terminal peptide of cCAF, or the 28-amino acid C-terminal peptide and calcium release was then measured.

Assay [4] deals with fibroblasts. The experiment in a line: Induction of differentiation of fibroblasts to myofibroblasts by IL-8 forms. Type of assay: cell-based. As to conditions: IL-8-77 versus IL-8-72.
For assay [5], the system named is Full-thickness excision wounds on the underside of the wings of 2-week-old chicks. The assay is described as follows: Wounding experiment: closure of excision wounds. The format is in vivo, chicken. As to conditions: 1 μg every other day, topical; versus vehicle (H2O) on contralateral wing. The protocol: Full-thickness excision wounds (approximately 0.5×0.5 cm) were made, using a scalpel blade, on the underside of the wings of 2-week-old chicks. The left wing was treated with vehicle alone (water), and the right wing with […] cCAF [90 nM]. The wounds were photographed immediately after wounding and then covered with Biocclusive bandage. 50 μl vehicle (water) or cCAF was deposited through the bandage onto the wound using a 30-gauge needle. This procedure was repeated the next day and every other day thereafter. On days 3, 5 and 7, the bandages were removed and the wounds were photographed before replacing the bandages and applying the treatment again.

The test system of assay [6] is α-SMA. The assay is described as follows: Immunostaining for α-SMA in fibroblast cultures and collagen gel sections. As to conditions: versus control gels. Type of assay: cell-based, chicken. As to the method: Plates of fibroblasts were treated with cCAF as described previously. After 4 days, the cells were rinsed with PBS, fixed in 4% paraformaldehyde, permeabilized with 0.15% Triton X-100 and incubated with PBS containing 0.1M glycine for 10 min. Cells were blocked for 30 min with 10% goat serum in PBS, incubated with mouse anti-α-SMA, to a final IgG concentration of 20 μg/ml, in 1% BSA/PBS for 1hr at room temperature (RT), and washed three times with 0.1% BSA/PBS for 10 min each. The cells were then incubated in goat anti-mouse FITC or sheep anti-mouse Texas Red (1:100) in 1% BSA/PBS for 1 hr at RT, washed three times for 10 min with 0.1% BSA in PBS and mounted with Vectashield. Collagen gels were rinsed with PBS, fixed in 4% paraformaldehyde for 2 hr, washed three times 30 min each with PBS, and incubated for an additional 30 min in PBS containing 0.1M glycine. This treatment was followed by incubation at 4° C. overnight in 15% sucrose and then incubated under the same conditions in 30% sucrose. After a brief rinse with PBS, the gels were frozen in OCT, sections prepared and collected on gelatin-coated slides, rinsed with PBS, fixed in 4% paraformaldehyde for 10 min, and then incubated again in PBS containing 0.1M glycine for 10 min. This was followed by blocking for 30 min with 10% goat serum in PBS, incubation in primary and secondary antibody as described above, and mounting with Vectashield.

In assay [7] the test system is α-SMA. The experiment in a line: Immunoblotting for α-SMA in fibroblast extracts. Type of assay: cell-based, chicken. The protocol: Plates of fibroblasts were treated as described previously, with 750 ng/ml cCAF or 2.5 ng/ml TGFβ. To block TGFβ, or cCAF activity, anti-cCAF (3 μl) or anti-TGFβ (1 μl) antibody was pre-incubated in 1 ml media for 1 hr at room temperature before being added to cells. After 4 days of treatment, protein extracts were prepared in 1 ml 150 mM RIPA buffer containing protease inhibitors. Protein concentrations were determined using the DC protein assay kit and samples were adjusted to contain equal amounts of protein. SDS-PAGE was performed on 7.5% separating Doucet gels (Doucet and Trifaro, 1988). Protein transfer to nitrocellulose was performed using a wet-transfer apparatus (Bio-Rad) at 100V for 45 min. The membranes were blocked for 1 hr in 5% milk in TTBS and then incubated overnight at 4° C. in mouse anti-α-SMA, to a final IgG concentration of 5 μg/ml, in 1% milk in TTBS. The membranes were washed 3 times for 20 min each with TTBS, incubated in anti-mouse HRP at 1:10,000 in 1% milk for 1hr and washed as above, and the bands visualized using the ECL.

Assay [8] has as its system fibroblast-seeded collagen gels. The assay is described as follows: Collagen gel contraction by fibroblasts. Type of assay: cell-based, chicken. The protocol:
1.5 ml Vitrogen 100 collagen gels were made in 35 mm plates. Secondary fibroblasts were plated at 0.4×10^6 cells/35 mm plate on top of the gels. After the cells had adhered to the collagen, cCAF was added to experimental plates. The medium was replaced approximately every 16 hr with 1 ml of 199 supplemented with 0.3% tryptose phosphate broth and 2% donor calf serum, and 750 ng cCAF [68 nM] or N-peptide [480 nM] was added to the experimental plates. Control plates contained media only. After 4 days, gels were released. Treatment was continued for 2 more days and gels were photographed every 12 hours. The photographs were used for evaluation of gel contraction by determining the area of the gel using NIH image analysis.

Entries after “also recorded” stand apart in the source; their conditions may differ.

These results are taken from patent US6962971B2, “Chemokines and methods for inducing the differentiation of fibroblasts to myofibroblasts” (The Regents of the University of California, priority 2001, dated 2005).

For the substance “C-peptide: 28-amino acid peptide extending from residues 59-86 of cCAF (SEQ ID NO:2) (CLDPTAPWVQLIVKALMAKAQLNSDAPL; Gallusgallus) [reference compound]”, the “effect on fibroblast growth / cell numbers” value is recorded as “did not suppress the growth of connective tissue fibroblasts” in assay [1] and “did not cause a decrease in cell numbers” in assay [1] (listed as C-terminal peptide). Also, the “angiogenic activity of the peptide by itself” value in assay [2] is “angiogenic in vivo”. The calcium release entry in assay [3] (400 ng) is “failed to induce calcium release”; in assay [3] (800 ng), “release of calcium that was similar in magnitude, but differed in time course from the N-peptide-induced release”.
Regarding “IL-8-77: 77-residue form of human interleukin-8, SEQ ID NO:4”, the “potency at inducing differentiation of fibroblasts to myofibroblasts, relative to the other IL-8 form” value in assay [4] is on record as “more potent at inducing differentiation of fibroblasts to myofibroblasts”.
“LSQGRTLVKMGNELR (Gallusgallus) [N-peptide, 15-amino acid N-terminal peptide of cCAF]”: the “effect on fibroblast growth / cell numbers” value in assay [1] is on record as “suppresses the growth of fibroblasts to a level similar to that caused by the whole cCAF molecule; also recorded: decrease in growth similar to that induced by cCAF”. The “dose- and time-dependent pattern of suppression of growth” value in assay [1] (compared with whole cCAF, not shown) is reported as “same as that of the whole cCAF molecule, albeit at a higher molar concentration”. For the same substance, the “wound closure at day 3 (days 0-3)” value in assay [5] was “accelerated wound closure during days 0-3, albeit less strongly than with the whole cCAF molecule”. The “α-SMA immunolabeling of sections of fibroblast-seeded collagen gels” value in assay [6] is reported as “more cells with fibers staining for α-SMA than control gels”. In addition, in assay [3] (400 ng), the calcium release entry was “similar, albeit somewhat slower, release”. The “α-SMA levels by immunoblot” value in assay [7] (750 ng/ml, versus untreated or C-peptide treated cells) is recorded as “much higher levels of α-SMA; also recorded: increased levels of α-SMA”. Further, the “contraction of collagen gels after release” value in assay [8] (750 ng/ml, 4-5 days treatment before release, versus untreated cells) is “much greater contraction; also recorded: stimulated fibroblasts to contract collagen gels more efficiently than untreated cells; also recorded: contracted the gels more tightly than did untreated cells”. In assay [8] (versus control cells), the “contraction of fibroblast clusters on collagen” value was “form clusters that are much tighter and generally pull away from the collagen; also recorded: more contracted than clusters in control cells”.
“TGFβ: Transforming Growth Factorβ-1, known stimulator of myofibroblast differentiation [reference compound]”: in assay [7] (2.5 ng/ml), the “α-SMA expression after TGFβ treatment” value was “stimulation of α-SMA”.
